In patent US5401768A, “2,5,6,7-tetranor-4,8-inter-m-phenylene PGI2, derivative, manufacturing process thereof and its use” (Toray Industries, Inc., priority 1987, dated 1995):
Converted amounts (≈) assume the structure as drawn. Read-outs that look alike come from different tables or passages of the source.

What was measured:
[1] = system: platelet aggregation; assay: Platelet aggregation-inhibiting action (ADP-induced, platelet-rich plasma); type: cell-based; conditions: ADP 10 μM, compound added 1 minute before ADP, human PRP, read-out: IC50 (concentration which inhibits 50% platelet aggregation)
Description: Blood taken from human median cubital vein was centrifuged at 800 rpm for 10 minutes and the upper part was collected as platelet-rich plasma (PRP). PRP was put into small test tubes and […] (ADP) was added thereto (final concentration of 10 μM) to induce platelet aggregation. The degree of platelet aggregation was measured as the change of turbidity determined by using a platelet aggregation measuring apparatus (commercially available from Rikadenki Co., Ltd., Tokyo). The compound was added 1 minute before the addition of ADP. The concentration which inhibits 50% aggregation was designated as IC50.

[2] = system: gastric acid secretion; assay: Gastric acid secretion-inhibiting action by pylorus ligation (Shay's method); type: in vivo; conditions: Rattus norvegicus, injected into duodenum, 5 hours, 5 animals in a group
Description: Gastric acid secretion-inhibiting action by pylorus ligation
According to the Shay's method (Gastroeuterology 5, 43 (1945)), median section was performed on abdomen of the rat under ether anesthesia and pylorus was ligated with thread. At the same time, the compound was injected into duodenum and then the incision was closed. After 5 hours, the abdomen was incised again and whole stomach was removed after ligating esophagus. The great curvature of the stomack was incised and the content was transferred to a graduated centrifuge tube. After centrifugation at 3000 rpm for 10 minutes, the volume of the gastric juice was measured. A part of the supernatant was sampled and was titrated with 0.1N NaOH until the pH became 7 using pH star (commercially available from Radio Meter Co., Ltd.).

[3] = system: ulcer index (corpus of stomack); assay: Cytoprotection (0.2N NaOH-induced gastric lesions, oral compound); type: in vivo; conditions: 30 minutes before oral 0.2N NaOH, read-out: ED50 (dose by which the ulcer index decreased to 50% of control)
Description: According to the method by A. Robert (Gartroerterolegy, 77(3), 443 (1979)), 30 minutes after oral administration of the compound, 0.2N NaOH was administered orally to the animals. After an hour, the animal was sacrified by chloroform anesthesia and the stomack was removed and fixed in 5% formalin solution. After fixation, the stomack was cut along the great curvature. A total length of blooding spot appearing on the corpus of stomack was measured and served as the ulcer index. When the ulcer index of the control group is taken as 100%, the dose of the compound by which the ulcer index decreased to 50% is designated as ED50.

[4] = system: gastric acid secretion; assay: Gastric acid secretion-inhibiting action (pentagastrin-stimulated, perfused stomach); type: in vivo, Male SD rat; conditions: PGE2 = 1; pentagastrin 0.05 μg/kg/min; femoral vein injection; area under pH curve
Description: Gastric acid secretion-inhibiting action
Male SD rat was incised in the abdomen under urethane anesthesia to open a hole at lumen of stomach. A double cannula was inserted from the hole and physiological saline was perfused in the stomack. The gastric acid flowed out was monitored by a pH meter (M. Chosh, H. Schild Br.J. Pharmacol 13, 54 (1958)). When the pH of the gastric acid was stabilized to about 4 after stimulation with continuous injection of pentagastrin at a rate of 0.05 μg/kg/min, the compound was injected through the femoral vein. As an index of the gastric acid secretion-inhibiting effect was measured using area enclosed by the curve from the point at which the pH started to increase by the gastric acid secretion-inhibiting effect to the point at which the pH is come back to the baseline. The relative effectiveness of gastric acid secretion-inhibiting effect of a compound was expressed when the value of PGE2 is 1, and the effectiveness of each compound was compared.

[5] = system: pressure of carotid arteries; assay: Hypotensive effect (carotid artery pressure, chloralose anesthesia); type: in vivo, Wistar rat (male); conditions: Rattus norvegicus, femoral catheter injection, read-out: ED25 mmHg (dose which may reduce the blood pressure by 25 mmHg)
Description: Under chloralose anesthesia, catheter was inserted to carotid arteries of Wistar rat (male). The catheter was connected to a polygraph via pressure transducer to measure the pressure of carotid arteries. The compound was injected via catheter connected to a femoral articles. The dose which may reduce the blood pressure by 25 mmHg from the dose-response curve was designated as ED25. The effectiveness of each compound was compared based on it.

[6] = level of the acid (mEq/ml), read-out: ED50 Gastric Acid
[7] = volume decreased to 50% of control, read-out: ED50 Volume of Gastric Juice

IC50 [1] | SMILES | ED50 [2, 6] | ED50 [2, 7] | ED50 [3] | Relative Effectiveness to PGE2 (gastric acid secretion inhibition) [4] | ED (25 mmHg) [5]
5.8 ng/mL (≈ 0.0155 µM) | CCCCC[C@H](O)/C=C/[C@@H]1[C@H]2c3cccc(CCC(=O)O)c3O[C@H]2C[C@H]1O (relative stereo) [Compound 42, 2,5,6,7-tetranor-4,8-inter-m-phenylene PGI2] | 3.8 mg/kg | 4.6 mg/kg | 0.0486 mg/kg | 3.6 | 0.00046 mg/kg
– | CCCCC(C)[C@H](O)/C=C/[C@@H]1[C@H]2c3cccc(CCC(=O)O)c3O[C@H]2C[C@H]1O (some centres unmarked) [Compound 51, 16-methyl-2,5,6,7-tetranor-4,8-inter-m-phenylene PGI2] | 0.21 mg/kg | 0.36 mg/kg | 0.00046 mg/kg | 35 | 0.00011 mg/kg
3.2 ng/mL (≈ 0.00824 µM) | CCC[C@H](C)C[C@H](O)/C=C/[C@@H]1[C@H]2c3cccc(CCC(=O)O)c3O[C@H]2C[C@H]1O [Compound 54, 17-(S)-methyl-2,5,6,7-tetranor-4,8-inter-m-phenylene PGI2] | 0.11 mg/kg | 0.015 mg/kg | 0.00086 mg/kg | 6.1 | 0.00078 mg/kg
1000 ng/mL (≈ 2.48 µM) | CCCCC(C)(C)[C@H](O)/C=C/[C@@H]1[C@H]2c3cccc(CCC(=O)O)c3O[C@H]2C[C@H]1O (relative stereo) [Compound 48, 16,16-dimethyl-2,5,6,7-tetranor-4,8-inter-m-phenylene PGI2] | 0.63 mg/kg | 6.3 mg/kg | 0.0023 mg/kg | – | 0.00084 mg/kg
1000 ng/mL (≈ 2.44 µM) | O=C(O)CCc1cccc2c1O[C@H]1C[C@@H](O)[C@H](/C=C/[C@@H](O)COc3ccccc3)[C@@H]21 (relative stereo) [Compound 120, 16-phenoxy-2,5,6,7,17,18,19,20-octanor-4,8-inter-m-phenylene PGI2] | 0.11 mg/kg | 0.3 mg/kg | 0.00456 mg/kg | 54 | 0.00051 mg/kg
– | CCCCCC[C@H](O)/C=C/[C@@H]1[C@H]2c3cccc(CCC(=O)O)c3O[C@H]2C[C@H]1O (relative stereo) [Compound 45, 20a-homo-2,5,6,7-tetranor-4,8-inter-m-phenylene PGI2] | – | – | – | 3.5 | –
– | CC(C)(Oc1ccccc1)[C@H](O)/C=C/[C@@H]1[C@H]2c3cccc(CCC(=O)O)c3O[C@H]2C[C@H]1O (relative stereo) [Compound 124, 16-methyl-16-phenoxy-2,5,6,7,18,19,20-heptanor-4,8-inter-m-phenylene PGI2] | 0.19 mg/kg | 0.75 mg/kg | 0.003 mg/kg | 62 | 0.0013 mg/kg
3.8 ng/mL (≈ 0.00983 µM) | O=C(O)CCc1cccc2c1O[C@H]1C[C@@H](O)[C@H](/C=C/[C@@H](O)C3CCCCC3)[C@@H]21 (relative stereo) [Compound 60, 15-cyclohexyl-2,5,6,7,16,17,18,19,20-nonanor-4,8-inter-m-phenylene PGI2] | 2.39 mg/kg | 1.19 mg/kg | 0.00679 mg/kg | 1.3 | 0.00017 mg/kg
– | CCOCC(C)(C)[C@H](O)/C=C/[C@@H]1[C@H]2c3cccc(CCC(=O)O)c3O[C@H]2C[C@H]1O (relative stereo) [Compound 108, 16,16-dimethyl-2,5,6,7-tetranor-18-oxa-4,8-inter-m-phenylene PGI2] | 2.02 mg/kg | > 10 mg/kg | 0.0035 mg/kg | 7.0 | –
– | CCCCC[C@H](O)/C=C/[C@H]1[C@H](O)CC(=O)[C@@H]1C/C=C\CCCC(=O)O [PGE2, reference compound] | – | – | – | 1 | –
– | CCCOC[C@H](O)/C=C/[C@@H]1[C@H]2c3cccc(CCC(=O)O)c3O[C@H]2C[C@H]1O (relative stereo) [Compound 101, 2,5,6,7-tetranor-17-oxa-4,8-inter-m-phenylene PGI2] | 0.9 mg/kg | 1.4 mg/kg | 0.0789 mg/kg | 4.9 | 0.0015 mg/kg
2.85 ng/mL (≈ 0.00749 µM) | O=C(O)CCc1cccc2c1O[C@H]1C[C@@H](O)[C@H](/C=C/[C@@H](O)c3ccccc3)[C@@H]21 (relative stereo) [Compound 71, 15-phenyl-2,5,6,7,16,17,18,19,20-nonanor-4,8-inter-m-phenylene PGI2] | 0.034 mg/kg | 0.045 mg/kg | 0.0015 mg/kg | 7.1 | 0.00026 mg/kg
